Experimental data reported in patent publication US20220062218A1, “COMPOSITIONS AND METHODS FOR TREATING DIABETES” (ENZYCHEM LIFESCIENCES, priority 2019, published 2022).

Experiments:
INS-1 cells [1] = assay: Glucose uptake assay with 2-NBDG in INS-1 cells (flow cytometry, immunofluorescence); format: cell-based, rat
Experimental: 2-[N-(7-nitrobenz-2-oxa-1,3-diazol-4-yl)amino]-2-deoxy-D-glucose (2-NBDG, N13195, Thermo Scientific) was used for glucose uptake assays. Glucose uptake assays were performed using 2-NBDG conjugated with fluorescent dye. Intracellular 2-NBDG was measured at 60 min (FIG. 5A) and successively calculated from 5 min to 480 min after 2-NBDG treatment by How cytometry (FIG. 5B). Serum-containing complete medium was removed, and INS-1 cells were washed in PBS. The cells were cultured in glucose-free culture media for 1 h at 37° C. and then treated with 2-NBDG. Intracellular fluorescence was measured using a BD FACS Verse flow cytometer (BD Biosciences).
Intracellular 2-NBDG expression were also observed using immunofluorescence assay (FIG.5-C). Data are presented as mean ±SD. *P<0.05, **P<0.005, ***P<0.001 vs. control, #P<0.05, ##P<0.005 vs. STZ.
(§1) After treatment with PLAG and PLH(1-palmitoyl-2-linoleoyl-3-hydroxyl-rac-glycerol), apoptosis, intracellular ROS generation and glucose uptake were analyzed by flow cytometry (FIG. 7-B to 7-E). In addition, expression of GLUT2 in membrane fractions was analyzed by Western blotting (FIG.7-F). Data are presented as mean ±SD. ***P<0.001 vs. control, #P<0.05, ##P<0.005 vs. STZ. N.S.: No significance.

INS-1 cells [2] = assay: STZ-induced cell apoptosis in INS-1 cells, flow cytometry with annexin-V and 7-AAD; format: cell-based, rat; conditions: STZ-treated cells
Experimental: The effect of PLAG on STZ-induced cell apoptosis was analyzed using flow cytometry using annexin-V and 7-AAD dye (FIGS. 2A and 2B). Cells were collected by trypsinization and washed with PBS. For cell apoptosis analyses, INS-1 cells were incubated with annexin V (BD Biosciences, Franklin Lakes, N.J., USA) for 10 min at room temperature, and stained with 7-AAD (BD Biosciences). Analysis was performed using a BD FACSVerse flow cytometer (BD Biosciences). The annexin-V and 7-AAD dyes are dyes that label apoptosis, one kind of cell death.
as §1
INS-1 rat insulinoma pancreas beta cells were cultured in RPMI-1640 medium (Welgene, Gyeongsangbuk-do, Republic of Korea) containing 10% fetal bovine serum (Tissue Culture Biologicals, Long Beach, Calif., USA), 50 μM β-mercaptoethanol, 100 units/mL penicillin, and 100 μg/mL streptomycin (Antibiotic-Antimycotic Solution, Welgene). The cells were grown in a humidified atmosphere with 5% CO2 at 37° C. Chemicals and reagents
Cells were collected by trypsinization and washed with ice-cold PBS. For cell apoptosis analyses, INS-1 cells were incubated with annexin V (BD Biosciences, Franklin Lakes, N.J., USA) for 10 min at room temperature, and stained with 7-AAD (BD Biosciences). For intracellular reactive oxygen species (ROS) analyses, cells were incubated with 2 μM of DCFH-DA (2′,7′-dichlorodihydrofluorescein diacetate, Invitrogen, Carlsbad, Calif., USA) for 30 min at 37° C. The analysis was performed using a BD FACS Verse flow cytometer (BD Biosciences).

[3] = system: Glucose Transporter 2 (GLUT2); assay: GLUT2 plasma membrane expression in STZ-treated cells (western blotting of membrane fractions, immunofluorescence); format: cell-based, rat
Experimental: To investigate the effect of PLAG on GLUT2 plasma membrane localization, GLUT2 expression and Racl expression in membrane fractions were examined in the same manner as the Western protein blotting (FIGS. 3A to 3B).
In addition, the localization of GLUT2 was observed by immunofluorescence assay. Cells were grown on glass coverslips in 24-well plates and treated with STZ and PLAG. After washing with ice-cold PBS, the cells were fixed with 4% formaldehyde. Permeabilization was not performed to identify only proteins expressed in the cell membrane. The cells were incubated with anti-GLUT2 antibodies (dilution 1:500) and then stained with an Alexa Fluor 488-conjugated secondary antibody (Enzo Life Sciences, dilution 1:1000) and DAPI (Invitrogen). Stained cells were observed under a Zeiss LSM800 confocal microscope (Carl Zeiss, Jena, Germany) (FIG. 3-C).
as §1

[4] = system: Streptozotocin (STZ)-induced diabetes model; assay: Streptozotocin (STZ)-induced diabetes model in mice: blood glucose, serum insulin, body weight, pancreas histopathology; format: in vivo
Experimental: In order to confirm the efficacy of 1-palmitoyl-2-linoleoyl-3- acetyl-racglycerol (EC-18 or PLAG) in the treatment of diabetes disease, Streptozotocin (STZ)-induced diabetes model were used in the experiments.
Mice were divided into four groups (control group, STZ-only treatment group, PLAG-co-treatment group, and PLAG-post-treatment group). After a 16-h fast, the three treated groups except the control group were injected intraperitoneally with STZ (200 mg/kg BW) prepared fresh in citrate buffer, wherein BW means body weight. STZ-only treatment mice received no additional treatment.
On the same day, PLAG-co-treatment group mice began treatment with PLAG (250 mg/kg, p.o.) once daily for 3 consecutive days. The PLAG-post-treatment group received PLAG (250 mg/kg, p.o.) for 2 consecutive days beginning 1 day after STZ injection. As the PLAG, 1-palmitoyl-2-linoleoyl-3-acetyl-rac-glycerol represented by Formula 2 was used.
Blood was collected via the retro-orbital plexus, and blood glucose levels were monitored during the experiment. Blood glucose was measured using the Accu-Chek glucometer (Roche, Seoul, Republic of Korea). FIG. 1A is a chart measuring the blood glucose of the control group and the experimental groups on the first day.
All mice were sacrificed on day 4, last day of experiment (day 4), serum insulin was measured (FIG. 1B). Tissues of the pancreatic tissue of the control group and the experimental group were collected and fixed in 10% formalin for further analysis. During the experiment, the weight change of the control group and the experimental groups was measured (FIG. 1C).
Pancreas tissues were fixed in 10% formalin, embedded in paraffin, and sectioned at a 4 μm thickness. For immunohistochemistry, sections were deparaffinized and […] using xylene and a graded ethanol series Staining was performed using the Real EnVision Detection System Peroxidase-DAB kit (Dako, Glostrup, Denmark) following the manufacturer's instructions, and then observed under a light microscope (Olympus, Tokyo, Japan) (FIG. 1D, 400 magnification).

## CCCCC/C=C\C/C=C\CCCCCCCC(=O)OC(COC(C)=O)COC(=O)CCCCCCCCCCCCCCC (racemic) [PLAG, 1-palmitoyl-2-linoleoyl-3-acetyl-rac-glycerol]
INS-1 cells [1]; 5 min to 480 min after 2-NBDG treatment, flow cytometry, vs 2-NBDG alone
  glucose uptake (2-NBDG time course): glucose uptake was attenuated
INS-1 cells [1]; Example 8, flow cytometry
  glucose uptake (2-NBDG), PLAG vs PLH: 2-NBDG was slowly absorbed
INS-1 cells [1]; at 60 min, flow cytometry
  intracellular 2-NBDG fluorescence intensity: lower fluorescence intensity
INS-1 cells [1]; time course vs 2-NBDG-only treated group
  intracellular 2-NBDG (immunofluorescence): increased more slowly
INS-1 cells [2]; 10 μg/mL of PLAG
  apoptosis: ~50%
INS-1 cells [2]; 100 μg/mL PLAG
  apoptosis: ~30%
INS-1 cells [2]; Example 8
  decrease of cell apoptosis, PLAG vs PLH: more effective than PLH
[3]; Example 8, membrane fractions by western blotting
  GLUT2 endocytosis / internalization, PLAG vs PLH: endocytosis of GLUT2 was promoted
[3]; STZ-treated cells, non-permeabilized, up to 60 min
  GLUT2 internalization (immunofluorescence): accelerated GLUT2 internalization was observed
[3]; STZ-treated cells, western blotting of membrane fractions, up to 60 min
  membrane-expressed GLUT2 (time course): gradually decreased until 10 min, then recovered and returned to control levels at 60 min
[4]; day 4, STZ-only group compared with control and PLAG groups (250 mg/kg p.o.)
  serum insulin (insulin secretion): Insulin secretion of the STZ-only treatment group is significantly lower than the control and other experimental groups
[4]; during the experiment, STZ-only group compared with control and PLAG groups (250 mg/kg p.o.)
  body weight change: STZ-only treatment group has a greater weight change than the control and other experimental groups
[4]; first day, PLAG-co-treatment group, 250 mg/kg p.o. once daily, STZ 200 mg/kg i.p., vs control group
  blood glucose: did not have a significant increase in blood glucose
